{
  "source": "paper PMC12818745",
  "about": "(ACS Chemical Neuroscience, 2025)",
  "data": [
    {"biological_target": "eeAChE (Electrophorus electricus AChE) (Electrophorus electricus, UniProt O42275)", "sequence (O42275 24-633)": "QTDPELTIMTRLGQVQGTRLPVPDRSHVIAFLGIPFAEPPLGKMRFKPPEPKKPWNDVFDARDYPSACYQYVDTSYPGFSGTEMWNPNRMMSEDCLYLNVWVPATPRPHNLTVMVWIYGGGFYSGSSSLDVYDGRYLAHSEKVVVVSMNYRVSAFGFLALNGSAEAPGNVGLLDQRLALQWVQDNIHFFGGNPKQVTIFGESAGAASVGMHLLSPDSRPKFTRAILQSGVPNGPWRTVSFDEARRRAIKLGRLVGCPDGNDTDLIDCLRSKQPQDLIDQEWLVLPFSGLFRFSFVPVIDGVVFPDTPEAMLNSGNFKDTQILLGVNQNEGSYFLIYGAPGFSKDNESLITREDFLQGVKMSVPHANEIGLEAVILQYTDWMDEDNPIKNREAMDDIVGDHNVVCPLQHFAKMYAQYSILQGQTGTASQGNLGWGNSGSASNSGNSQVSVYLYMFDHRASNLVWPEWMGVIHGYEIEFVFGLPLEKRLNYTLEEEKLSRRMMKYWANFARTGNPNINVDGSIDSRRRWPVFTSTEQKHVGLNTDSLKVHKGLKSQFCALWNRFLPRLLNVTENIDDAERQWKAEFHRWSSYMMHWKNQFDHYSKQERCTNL", "assay": "Cholinesterase inhibition assay (modified Ellman's method), eeAChE", "format": "biochemical", "settings": "mean ± SEM, n = 3; n.a = nonactive; IC50 determined only if inhibition higher than 50% at 20 μM", "excerpt": "Compound series A and B were initially screened for their cholinesterase activity against eeAChE (Electrophorus electricus AChE) and eqBChE (equine serum butyrylcholinesterase), using an adaptation of the Ellman’s method. […]. […] Similarly, replacing the terminal triple bond in 7l with a nitrile group reduced its activity, while replacing the O-propargyl group with an N,N-dipropargyl group in 10 enhanced the inhibition of both enzymes, particularly BChE (Table ). The installation of an additional aryl ring in 7o further improved AChE inhibition, slightly increasing selectivity toward this enzyme. […]. […]. […]. The inhibitory activity of the synthesized compounds toward eeAChE and eqBChE was evaluated spectrophotometrically through a 96-well microplate modified Ellman’s method. The solutions of both enzymes were prepared as 0.025 U/mL in phosphate buffer at pH 7, from stock solutions of 5.05 U/mL and 7.50 U/mL, respectively. The stock solutions for the target compounds (0.1 M) were prepared in dimethyl sulfoxide (DMSO). […] The reaction mixture was prepared with 100 μL of the enzyme (eeAChE or eqBChE) and 50 μL of the test compound (or DMSO/water, not exceeding 0.2% of DMSO in the wells; i.e blank samples). After 5 min of the preincubation period at 37 °C, 50 μL of ATChI or BTChI and 50 μL of DTNB were added to each well, thus initiating the enzymatic reaction. The absorbance values were measured at 415 nm, for a total of 7.5 min, at every 2.5 min, using a microplate reader (Synergy multimode reader; BioTek). […]. All experiments were performed in triplicate.", "units": {"IC50": "nM"}, "values": [
      {"smiles": "C#CCOc1ccccc1/C=C/c1cc(=O)c2ccccc2o1", "note": "[Compound 7a, (E)-2-[2-(Prop-2-yn-1-yloxy)styryl]-4H-chromen-4-one]", "IC50": "9500 ± 300"},
      {"smiles": "C#CCOc1ccccc1/C=C/c1cc(=O)c2ccc(OC)c(OC)c2o1", "note": "[Compound 7d, (E)-7,8-Dimethoxy-2-[2-(prop-2-yn-1-yloxy)styryl]-4H-chromen-4-one]", "IC50": "2400 ± 400"},
      {"smiles": "Cc1ccc(C#CCOc2ccccc2/C=C/c2cc(=O)c3ccccc3o2)cc1", "note": "[Compound 7o, (E)-2-(2-{[3-(4-methylphenyl)prop-2-yn-1-yl]oxy}styryl)-4H-chromen-4-one]", "IC50": "2900 ± 500"},
      {"smiles": "O=c1c2ccccc2oc2cc3c(cc12)COc1ccccc1-3", "note": "[Compound 11a, 6H,8H-Chromeno[3,4-b]xanthen-8-one]", "IC50": "2100 ± 200"},
      {"smiles": "COc1ccc2c(=O)c3cc4c(cc3oc2c1)-c1ccccc1OC4", "note": "[Compound 11b, 11-Methoxy-6H,8H-chromeno[3,4-b]xanthen-8-one]", "IC50": "3900 ± 900"}
    ]},
    {"biological_target": "T1, Aβ42 aggregation (Homo sapiens, UniProt P05067)", "T1 construct": "expressed in transfected cells; host or cells: E. coli BL21 (DE3), pET vector", "T1 sequence (P05067 672-713)": "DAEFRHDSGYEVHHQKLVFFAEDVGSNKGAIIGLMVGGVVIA", "assay": "Thioflavin S assay of Aβ42 aggregation in E. coli cells overexpressing Aβ42", "format": "cell-based, Escherichia coli", "settings": "read-out: Aβ42 inhibition %", "experimental": "The antiaggregating profiles of both series A and B were evaluated using a fluorescence Thioflavin S (ThS) assay in cellulo, which monitors ThS fluorescence in the presence of β-sheet-rich structures, such as Aβ and tau protein aggregates. This method, based on recombinant Escherichia coli (E. coli) bacteria overexpressing insoluble aggregates, offers a simple and cost-effective approach to model aggregation processes in mammalian systems and has been validated for use in drug discovery studies. , Compounds were tested at a screening concentration of 50 μM for their ability to inhibit Aβ42 aggregation. The results, summarized in Table , reveal distinct antiaggregating profiles between series A and B, which are once again influenced by their structural differences.\n42 Amino acid Aβ42 was cloned and overexpressed in E. coli BL21 (DE3) competent cells using the pET vector harboring the DNA sequence of Aβ42. Due to the addition of the initiation codon ATG preceding genes, the resulting overexpressed peptide contained an additional methionine residue at its N-terminus. For the preparation of overnight cultures, a colony of BL21 (DE3) cells carrying the plasmid for expression was inoculated in 10 mL of M9 minimal medium supplemented with 50 μg mL^–1 kanamycin at 37 °C. Subsequently, a 1:500 dilution of the overnight culture was added to fresh M9 minimal medium containing 50 μg mL^–1 kanamycin and 25 μM ThS. The bacterial culture was then incubated at 37 °C with agitation at 250 rpm. Upon reaching an OD600 of 0.6, 980 μL of the culture was transferred into 1.5 mL Eppendorf tubes, each containing 10 μL of the compound to be tested dissolved in DMSO and 10 μL of 100 mM isopropyl 1-thio-β-D-galactopyranoside (IPTG) or, alternatively, 10 μL of water for the noninduced controls. The final compound concentration was adjusted to […]. The samples were allowed to grow overnight at 37 °C with agitation at 1400 rpm using a Thermomixer (Eppendorf). Negative controls, representing maximum amyloid presence, utilized free DMSO.\nThS (T1892) and all other chemical reagents were purchased from Sigma (St. Louis, MO). Stock solutions of ThS (250 μM) were prepared using doubly distilled water purified via a Milli-Q system (Millipore). For the fluorescence assay, ThS spectra were recorded utilizing an AmincoBowman series 2 luminescence spectrophotometer (Aminco-Bowman AB2, SLM Aminco, Rochester, NY) within the range of 460 to 600 nm at a temperature of 25 °C. The excitation wavelength employed was 445 nm, with slit widths set at 4 nm. The emission at 485 nm, corresponding to the ThS peak observed in the presence of amyloids, was recorded. To standardize ThS fluorescence relative to bacterial concentration in both in vitro and cell-based assays, the OD600 was determined using a Shimadzu UV-2401 PC UV–vis spectrophotometer. Fluorescence normalization was executed by setting the ThS fluorescence of bacterial cells expressing the peptide or protein in the absence of the drug as 100%, while that of bacterial cells not expressing the peptide or protein was established as 0%.", "units": {"inhibition at 50 µM": "%"}, "values": [
      {"smiles": "C#CCOc1ccccc1/C=C/c1cc(=O)c2ccccc2o1", "note": "[Compound 7a, (E)-2-[2-(Prop-2-yn-1-yloxy)styryl]-4H-chromen-4-one]", "inhibition at 50 µM": "38 ± 6.2"},
      {"smiles": "C#CCOc1ccccc1/C=C/c1cc(=O)c2ccc(OC)cc2o1", "note": "[Compound 7b, (E)-7-Methoxy-2-[2-(prop-2-yn-1-yloxy)styryl]-4H-chromen-4-one]", "inhibition at 50 µM": "23 ± 1.8"},
      {"smiles": "C#CCOc1ccccc1/C=C/c1cc(=O)c2c(OC)cccc2o1", "note": "[Compound 7c, (E)-5-Methoxy-2-[2-(prop-2-yn-1-yloxy)styryl]-4H-chromen-4-one]", "inhibition at 50 µM": "33 ± 2.2"},
      {"smiles": "C#CCOc1ccccc1/C=C/c1cc(=O)c2ccc(OC)c(OC)c2o1", "note": "[Compound 7d, (E)-7,8-Dimethoxy-2-[2-(prop-2-yn-1-yloxy)styryl]-4H-chromen-4-one]", "inhibition at 50 µM": "28 ± 1.7"},
      {"smiles": "C#CCOc1ccccc1/C=C/c1cc(=O)c2c(OC)cc(OC)cc2o1", "note": "[Compound 7e, (E)-5,7-Dimethoxy-2-[2-(prop-2-yn-1-yloxy)styryl]-4H-chromen-4-one]", "inhibition at 50 µM": "24 ± 1.7"},
      {"smiles": "C#CCOc1ccc(OC)cc1/C=C/c1cc(=O)c2ccccc2o1", "note": "[Compound 7f, (E)-2-[5-Methoxy-2-(prop-2-yn-1-yloxy)styryl]-4H-chromen-4-one]", "inhibition at 50 µM": "15 ± 2.7"},
      {"smiles": "C#CCOc1ccc(Br)cc1/C=C/c1cc(=O)c2ccccc2o1", "note": "[Compound 7g, (E)-2-[5-Bromo-2-(prop-2-yn-1-yloxy)styryl]-4H-chromen-4-one]", "inhibition at 50 µM": "25 ± 4.6"},
      {"smiles": "C#CCOc1ccc(OC(F)(F)F)cc1/C=C/c1cc(=O)c2ccccc2o1", "note": "[Compound 7h, (E)-2-[2-(Prop-2-yn-1-yloxy)-5-(trifluoromethoxy)styryl]-4H-chromen-4-one]", "inhibition at 50 µM": "11 ± 2"},
      {"smiles": "C#CCOc1ccc(F)cc1/C=C/c1cc(=O)c2ccccc2o1", "note": "[Compound 7i, (E)-2-[5-Fluoro-2-(prop-2-yn-1-yloxy)styryl]-4H-chromen-4-one]", "inhibition at 50 µM": "22 ± 4.8"},
      {"smiles": "C#CCOc1ccc(Cl)cc1/C=C/c1cc(=O)c2ccccc2o1", "note": "[Compound 7j, (E)-2-[5-Chloro-2-(prop-2-yn-1-yloxy)styryl]-4H-chromen-4-one]", "inhibition at 50 µM": "11 ± 2.3"},
      {"smiles": "C#CCOc1c(Br)cc(Cl)cc1/C=C/c1cc(=O)c2ccccc2o1", "note": "[Compound 7k, (E)-2-[3-Bromo-5-chloro-2-(prop-2-yn-1-yloxy)styryl]-4H-chromen-4-one]", "inhibition at 50 µM": "24 ± 3"},
      {"smiles": "N#CCOc1ccccc1/C=C/c1cc(=O)c2ccccc2o1", "note": "[Compound 7l, (E)-2-{2-[2-(4-oxo-4H-chromen-2-yl)vinyl]phenoxy}acetonitrile]", "inhibition at 50 µM": "34 ± 5.2"},
      {"smiles": "O=c1cc(/C=C/c2ccccc2OCC#Cc2ccccc2)oc2ccccc12", "note": "[Compound 7m, (E)-2-{2-[(3-Phenylprop-2-yn-1-yl)oxy]styryl}-4H-chromen-4-one]", "inhibition at 50 µM": "28 ± 3.8"},
      {"smiles": "COc1ccc(C#CCOc2ccccc2/C=C/c2cc(=O)c3ccccc3o2)cc1", "note": "[Compound 7n, (E)-2-(2-{[3-(4-Methoxyphenyl)prop-2-yn-1-yl]oxy}styryl)-4H-chromen-4-one]", "inhibition at 50 µM": "34 ± 3.3"},
      {"smiles": "Cc1ccc(C#CCOc2ccccc2/C=C/c2cc(=O)c3ccccc3o2)cc1", "note": "[Compound 7o, (E)-2-(2-{[3-(4-methylphenyl)prop-2-yn-1-yl]oxy}styryl)-4H-chromen-4-one]", "inhibition at 50 µM": "37 ± 2"},
      {"smiles": "C#CCOc1ccc(OC)cc1/C=C/c1cc(=O)c2ccc(OC)cc2o1", "note": "[Compound 7p, (E)-7-Methoxy-2-[5-methoxy-2-(prop-2-yn-1-yloxy)styryl]-4H-chromen-4-one]", "inhibition at 50 µM": "11 ± 1.5"},
      {"smiles": "C#CCOc1ccc(OC)cc1/C=C/c1cc(=O)c2ccc(OC)c(OC)c2o1", "note": "[Compound 7r]", "inhibition at 50 µM": "40 ± 5.6"},
      {"smiles": "C#CCOc1ccc(OC)cc1/C=C/c1cc(=O)c2c(OC)cc(OC)cc2o1", "note": "[Compound 7s, (E)-5,7-Dimethoxy-2-[5-methoxy-2-(prop-2-yn-1-yloxy)styryl]-4H-chromen-4-one]", "inhibition at 50 µM": "50 ± 1.6"},
      {"smiles": "C#CCOc1ccc(OC(F)(F)F)cc1/C=C/c1cc(=O)c2ccc(OC)cc2o1", "note": "[Compound 7t, (E)-7-Methoxy-2-[2-(prop-2-yn-1-yloxy)-5-(trifluoromethoxy)styryl]-4H-chromen-4-one]", "inhibition at 50 µM": "20 ± 2.3"},
      {"smiles": "C#CCOc1ccc(F)cc1/C=C/c1cc(=O)c2ccc(OC)cc2o1", "note": "[Compound 7u, (E)-2-[5-Fluoro-2-(prop-2-yn-1-yloxy)styryl]-7-methoxy-4H-chromen-4-one]", "inhibition at 50 µM": "28 ± 3.5"},
      {"smiles": "C#CCOc1ccc(Cl)cc1/C=C/c1cc(=O)c2ccc(OC)cc2o1", "note": "[Compound 7v, (E)-2-[5-Chloro-2-(prop-2-yn-1-yloxy)styryl]-7-methoxy-4H-chromen-4-one]", "inhibition at 50 µM": "17 ± 2"},
      {"smiles": "C#CCOc1c(Br)cc(Cl)cc1/C=C/c1cc(=O)c2ccc(OC)cc2o1", "note": "[Compound 7w, (E)-2-[3-Bromo-5-chloro-2-(prop-2-yn-1-yloxy)styryl]-7-methoxy-4H-chromen-4-one]", "inhibition at 50 µM": "35 ± 3"},
      {"smiles": "C#CCOc1ccc2ccccc2c1/C=C/c1cc(=O)c2ccccc2o1", "note": "[Compound 8a]", "inhibition at 50 µM": "47 ± 3.9"},
      {"smiles": "C#CCOc1ccc2ccccc2c1/C=C/c1cc(=O)c2ccc(OC)cc2o1", "note": "[Compound 8b]", "inhibition at 50 µM": "32 ± 4.3"},
      {"smiles": "O=c1c2ccccc2oc2cc3c(cc12)COc1ccccc1-3", "note": "[Compound 11a, 6H,8H-Chromeno[3,4-b]xanthen-8-one]", "inhibition at 50 µM": "15 ± 4.6"},
      {"smiles": "COc1ccc2c(=O)c3cc4c(cc3oc2c1)-c1ccccc1OC4", "note": "[Compound 11b, 11-Methoxy-6H,8H-chromeno[3,4-b]xanthen-8-one]", "inhibition at 50 µM": "22 ± 2.7"},
      {"smiles": "COc1cccc2oc3cc4c(cc3c(=O)c12)COc1ccccc1-4", "note": "[Compound 11c, 9-Methoxy-6H,8H-chromeno[3,4-b]xanthen-8-one]", "inhibition at 50 µM": "34 ± 4.4"},
      {"smiles": "O=c1c2ccccc2oc2cc3c(cc12)COc1ccc(Br)cc1-3", "note": "[Compound 11g, 2-Bromo-6H,8H-chromeno[3,4-b]xanthen-8-one]", "inhibition at 50 µM": "36 ± 4.8"},
      {"smiles": "O=c1c2ccccc2oc2cc3c(cc12)COc1ccc(Cl)cc1-3", "note": "[Compound 11j, 2-Chloro-6H,8H-chromeno[3,4-b]xanthen-8-one]", "inhibition at 50 µM": "45 ± 7.4"},
      {"smiles": "COc1ccc2c(c1)-c1cc3oc4c(OC)c(OC)ccc4c(=O)c3cc1CO2", "note": "[Compound 11n, 2,11,12-Trimethoxy-6H,8H-chromeno[3,4-b]xanthen-8-one]", "inhibition at 50 µM": "34 ± 4"},
      {"smiles": "COc1ccc2c(c1)-c1cc3oc4cc(OC)cc(OC)c4c(=O)c3cc1CO2", "note": "[Compound 11o, 2,9,11-Trimethoxy-6H,8H-chromeno[3,4-b]xanthen-8-one]", "inhibition at 50 µM": "33 ± 4.3"},
      {"smiles": "COc1ccc2c(=O)c3cc4c(cc3oc2c1)-c1cc(OC(F)(F)F)ccc1OC4", "note": "[Compound 11p, 11-Methoxy-2-(trifluoromethoxy)-6H,8H-chromeno[3,4-b]xanthen-8-one]", "inhibition at 50 µM": "29 ± 7.6"},
      {"smiles": "O=c1c2ccccc2oc2cc3c(cc12)COc1ccc2ccccc2c1-3", "note": "[Compound 12a]", "inhibition at 50 µM": "43 ± 3.9"}
    ]}
  ]
}
